Reference: patent US12668571B2, “Substituted 3-amino-4-methylbenzenesulfonamides as small molecule inhibitors of ubiquitin-specific protease 28” (Dana-Farber Cancer Institute, Inc., priority 2020, dated 2026)

What was measured:
USP28 [1] = molecular target: T1, USP28 (Homo sapiens, UniProt Q96RU2); test: Ubiquitin-Rhodamine110 assay; assay type: biochemical; conditions: USP28 at 1 nM, 30 minutes pre-incubation at room temperature, Ubiquitin-Rho110 substrate 125 nM
T1 sequence (Q96RU2 1-1077): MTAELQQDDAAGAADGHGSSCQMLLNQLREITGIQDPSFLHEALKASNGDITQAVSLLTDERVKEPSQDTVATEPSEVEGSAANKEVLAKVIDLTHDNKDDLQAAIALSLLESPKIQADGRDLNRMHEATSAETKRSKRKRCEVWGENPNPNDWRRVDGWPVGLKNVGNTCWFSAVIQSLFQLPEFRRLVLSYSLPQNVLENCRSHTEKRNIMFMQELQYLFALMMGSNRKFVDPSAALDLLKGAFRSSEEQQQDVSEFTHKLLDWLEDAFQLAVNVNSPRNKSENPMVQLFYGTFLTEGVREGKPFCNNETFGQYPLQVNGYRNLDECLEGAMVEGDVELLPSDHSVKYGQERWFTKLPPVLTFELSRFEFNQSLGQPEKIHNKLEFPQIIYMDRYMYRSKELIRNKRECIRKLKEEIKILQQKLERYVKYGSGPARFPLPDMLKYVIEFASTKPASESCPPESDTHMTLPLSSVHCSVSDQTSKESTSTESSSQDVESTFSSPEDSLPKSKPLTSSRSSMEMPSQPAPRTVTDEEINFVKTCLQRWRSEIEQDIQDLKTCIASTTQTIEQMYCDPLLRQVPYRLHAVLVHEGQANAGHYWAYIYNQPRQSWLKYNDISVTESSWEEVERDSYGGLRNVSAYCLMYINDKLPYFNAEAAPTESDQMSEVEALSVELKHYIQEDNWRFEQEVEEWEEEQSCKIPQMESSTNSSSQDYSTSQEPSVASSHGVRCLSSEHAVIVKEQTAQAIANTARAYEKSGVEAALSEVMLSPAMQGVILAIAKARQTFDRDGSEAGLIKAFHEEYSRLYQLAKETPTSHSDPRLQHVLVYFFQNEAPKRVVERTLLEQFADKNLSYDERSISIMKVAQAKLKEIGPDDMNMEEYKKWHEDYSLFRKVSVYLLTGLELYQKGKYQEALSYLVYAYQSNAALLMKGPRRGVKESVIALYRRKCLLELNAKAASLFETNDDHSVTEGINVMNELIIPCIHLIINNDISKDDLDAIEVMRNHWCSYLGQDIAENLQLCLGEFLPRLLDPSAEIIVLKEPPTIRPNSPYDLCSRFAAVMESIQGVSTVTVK
Protocol: USP28 (at 1 nM) was pre-incubated with different concentrations of inhibitors or DMSO as a control in 50 mM Tris pH 8, 50 mM NaCl, 0.002% Tween-20, 5 mM DTT. Compounds and protein were incubated for 30 minutes at room temperature prior to the addition of Ubiquitin-Rho110 (Boston Biochem) substrate for a final concentration of 125 nM. The initial rate of the reaction was measured by collecting fluorescence data at one-minute interval over 30-minute period using a Clariostar® fluorescence plate reader at excitation and emission wavelength of 485 nm and 535 nm, respectively. The calculated initial rate values were plotted against inhibitor concentrations to determine IC50s. All the experimental data were plotted using GraphPad Prism®.

USP28 [2] = molecular target: T1, USP28; test: Competitive activity-based protein profiling (target engagement, Ub-VME probe, Western blot); assay type: binding; conditions: K562 cells lysed, treated with compound for 1 h, then incubated with Ub-VME
Protocol: K562 cells were lysed and treated with indicated concentrations of compound 1 for 1 h followed by incubation with Ub-VME. Ub-VME covalently modifies USP28, resulting in higher MW band observed by Western blot.
Cells were pelleted, washed with PBS buffer, lysed on ice (20 mM Tris pH 8, 150 mM NaCl, 1% NP-40, 10% glycerol, 1 mM TCEP, phosphatase inhibitor cocktails (Sigma P5726 and Calbiochem 524624), and protease inhibitors (pepstatin, leupeptin, PMSF, and aprotinin), and clarified by centrifugation. Protein content was quantified by BCA and diluted to 2 mg/mL in lysis buffer. Compounds were added at desired concentrations and incubated at room temperature for […]. Samples were then supplemented with 2 uM […] and incubated at room temperature with shaking for 15 minutes. Reactions were quenched with 4×LDS sample buffer (Thermo Fisher B0007) supplemented with 10% BME, vortexed vigorously, and heated to 95° C. for 5 minutes. Samples were resolved by SDS-PAGE and analyzed by Western blot with the indicated antibodies.

Question: With CN(C)S(=O)(=O)c1ccc2[nH]c(Cc3ccc(Cl)c(Cl)c3)nc2c1 [Compound 27] as the compound, how does the IC50 (USP28 [1]) read?
Answer: > 100 µM

Question: Which IC50 (USP28 [1]) does the source give for Cc1ccc(S(=O)(=O)NCc2ccccc2)cc1NC(=O)Cc1ccc(Cl)c(Cl)c1 [Compound 14] here?
Answer: < 1 µM

Question: For Cc1ccc(S(=O)(=O)NCc2ccccc2)cc1NC(=O)c1ccc(Cl)c(Cl)c1 [Compound 24], which IC50 (USP28 [1]) is on record?
Answer: < 1 µM

Question: With CN(C)S(=O)(=O)c1cccc(NC(=O)Cc2ccc(Cl)c(Cl)c2)c1 [Compound 13] as the compound, how does the IC50 (USP28 [1]) read?
Answer: 10 to 100 µM

Question: For Cc1ccc(S(=O)(=O)Nc2ccccc2)cc1NC(=O)Cc1ccc2ccccc2c1 [Compound 23], which IC50 (USP28 [1]) is on record?
Answer: < 1 µM

Question: Which IC50 (USP28 [1]) does the source give for Cc1ccc(S(=O)(=O)N(C)C)cc1NC(=O)Cc1ccc(O)cc1 [Compound 5] here?
Answer: > 100 µM

Question: Which IC50 (USP28 [1]) does the source give for Cc1ccc(S(=O)(=O)N(C)C)cc1NC(=O)Cc1ccc([N+](=O)[O-])cc1 [Compound 4] here?
Answer: 10 to 100 µM

Question: With CS(=O)(=O)c1cccc(NC(=O)Cc2ccc(Cl)c(Cl)c2)c1 [Compound 6] as the compound, how does the IC50 (USP28 [1]) read?
Answer: 10 to 100 µM

Question: Cc1ccc(S(=O)(=O)N(C)C)cc1NC(=O)Cc1ccc(-c2ccccc2)cc1 [Compound 9] was tested. Which IC50 (USP28 [1]) did it give?
Answer: > 100 µM

Question: Cc1ccc(S(=O)(=O)Nc2ccc(N3CCN(C)CC3)cc2)cc1NC(=O)Cc1ccc(Cl)c(Cl)c1 [Compound 15] was tested. Which IC50 (USP28 [1]) did it give?
Answer: < 1 µM

Question: How did the IC50 (USP28 [1]) turn out when Cc1ccc(C(=O)NCc2ccccc2)cc1NC(=O)Cc1ccc(Cl)c(Cl)c1 [Compound 22] was run?
Answer: 1 to 10 µM

Question: Cc1ccc(S(=O)(=O)N(C)C)cc1C(=O)NCc1ccc(Cl)c(Cl)c1 [Compound 21] was tested. Which IC50 (USP28 [1]) did it give?
Answer: < 1 µM

Question: With Cc1ccc(S(=O)(=O)N(C)C)cc1NC(=O)Cc1ccc(Cl)c(Cl)c1 [Compound 1] as the compound, how does the IC50 (USP28 [1]) read?
Answer: < 1 µM

Question: What about the “labeling of USP28 by covalent Ub-VME probe (Western blot, FIG. 2)” value (USP28 [2]) of the same compound?
Answer: prevents labeling of USP28 by the covalent Ub-VME probe

Question: With CCN(CC)S(=O)(=O)c1cccc(NC(=O)Cc2ccc(Cl)c(Cl)c2)c1 [Compound 8] as the compound, how does the IC50 (USP28 [1]) read?
Answer: 1 to 10 µM

Question: How did the IC50 (USP28 [1]) turn out when Cc1ccc(S(=O)(=O)Nc2ccccc2)cc1NC(=O)Cc1ccc(Cl)c(Cl)c1 [Compound 12] was run?
Answer: < 1 µM

Question: For CN(C)S(=O)(=O)c1ccc(Cl)c(NC(=O)Cc2ccc(Cl)c(Cl)c2)c1 [Compound 16], which IC50 (USP28 [1]) is on record?
Answer: < 1 µM

Question: With Cc1ccc(S(=O)(=O)Nc2ccc(-n3ccnc3)cc2)cc1NC(=O)Cc1ccc(Cl)c(Cl)c1 [Compound 29] as the compound, how does the IC50 (USP28 [1]) read?
Answer: 1 to 10 µM

Question: Cc1ccc(S(=O)(=O)N(C)C)cc1NC(=O)CCc1ccccc1 [Compound 7] was tested. Which IC50 (USP28 [1]) did it give?
Answer: > 100 µM

Question: With CCc1ccc(S(=O)(=O)N(C)C)cc1NC(=O)Cc1ccc(Cl)c(Cl)c1 [Compound 17] as the compound, how does the IC50 (USP28 [1]) read?
Answer: 1 to 10 µM

Question: With Cc1ccc(S(=O)(=O)N(C)C)cc1NC(=O)Cc1cccc(C(F)(F)F)c1 [Compound 3] as the compound, how does the IC50 (USP28 [1]) read?
Answer: 1 to 10 µM

Question: Cc1ccc(S(=O)(=O)N2CCCCC2)cc1NC(=O)Cc1ccc(Cl)c(Cl)c1 [Compound 11] was tested. Which IC50 (USP28 [1]) did it give?
Answer: < 1 µM

Question: CN(C)S(=O)(=O)c1ccc(OC(F)(F)F)c(NC(=O)Cc2ccc(Cl)c(Cl)c2)c1 [Compound 18] was tested. Which IC50 (USP28 [1]) did it give?
Answer: 10 to 100 µM

Question: How did the IC50 (USP28 [1]) turn out when Cc1ccc(S(=O)(=O)N(C)C)cc1NC(=O)CN1CCN(C)CC1 [Compound 10] was run?
Answer: 1 to 10 µM

Question: Cc1ccc(S(=O)(=O)N(C)C)cc1NC(=O)Cc1ccccc1 [Compound 2] was tested. Which IC50 (USP28 [1]) did it give?
Answer: 1 to 10 µM

Question: For Cc1ccc(S(=O)(=O)N(C)C)cc1C(=O)NCc1cccc(Cl)c1 [Compound 20], which IC50 (USP28 [1]) is on record?
Answer: < 1 µM

Question: For CN(C)S(=O)(=O)c1ccc(NCc2ccccc2)c(NC(=O)Cc2ccc(Cl)c(Cl)c2)c1 [Compound 19], which IC50 (USP28 [1]) is on record?
Answer: > 100 µM
